{
  "source": "PubChem BioAssay AID1259409",
  "about": "(Chemical Carcinogenesis Research Information System (CCRIS), 2018)",
  "origin": "cited, not measured here",
  "tested_on": "rodent chemically induced tumor inhibition, incidence and multiplicity",
  "test": "CCRIS tumor inhibitor studies",
  "conditions": "Dose [Inhibitor]: 0, Route [Inhibitor]: ORAL",
  "data": [
    {"smiles": "COc1ccc2c(c1)c(CC(=O)O)c(C)n2C(=O)c1ccc(Cl)cc1", "values": [
      {"measurement": "tumour outcome (control, treated, inhibition, significance)", "setting": "Carcinogen: N-BUTYL-N-(4-HYDROXYBUTYL)NITROSAMINE, 3817-11-6, 20 PPM IN DRINKING WATER FOR 40 WK BEGINNING POST CARCINOGEN TREATMENT (STUDY DURATION: 44 WK), Species: RAT, Strain/Sex: F344/MALE, Target Tissue: Type of Lesion: URINARY BLADDER: PAPILLOMA, Dose [Carcinogen]: 0.05% IN DRINKING WATER FOR 4 WK, Promoter: BUTYLATED HYDROXYANISOLE, 25013-16-5", "result": "14/15 (93%), 4/15 (27%), 71%, p<0.01"},
      {"measurement": "tumour outcome (control, treated, inhibition, significance)", "setting": "Carcinogen: N-BUTYL-N-(4-HYDROXYBUTYL)NITROSAMINE, 3817-11-6, 20 PPM IN DRINKING WATER FOR 40 WK BEGINNING POST CARCINOGEN TREATMENT (STUDY DURATION: 44 WK), Species: RAT, Strain/Sex: F344/MALE, Target Tissue: Type of Lesion: URINARY BLADDER: PAPILLOMA, Dose [Carcinogen]: 0.05% IN DRINKING WATER FOR 4 WK, Promoter: SODIUM L-ASCORBATE, 134-03-2", "result": "15/15 (100%), 9/15 (60%), 40%, p<0.01"},
      {"measurement": "tumour outcome (control, treated, inhibition, significance)", "setting": "Carcinogen: N-BUTYL-N-(4-HYDROXYBUTYL)NITROSAMINE, 3817-11-6, 20 PPM IN DRINKING WATER FOR 40 WK BEGINNING POST CARCINOGEN TREATMENT (STUDY DURATION: 44 WK), Species: RAT, Strain/Sex: F344/MALE, Target Tissue: Type of Lesion: URINARY BLADDER: TRANSITIONAL CELL CARCINOMA, Dose [Carcinogen]: 0.05% IN DRINKING WATER FOR 4 WK, Promoter: BUTYLATED HYDROXYANISOLE, 25013-16-5", "result": "10/15 (67%), 1/15 (7%), 90%, p<0.01"},
      {"measurement": "tumour outcome (control, treated, inhibition, significance)", "setting": "Carcinogen: N-BUTYL-N-(4-HYDROXYBUTYL)NITROSAMINE, 3817-11-6, 20 PPM IN DRINKING WATER FOR 40 WK BEGINNING POST CARCINOGEN TREATMENT (STUDY DURATION: 44 WK), Species: RAT, Strain/Sex: F344/MALE, Target Tissue: Type of Lesion: URINARY BLADDER: TRANSITIONAL CELL CARCINOMA, Dose [Carcinogen]: 0.05% IN DRINKING WATER FOR 4 WK, Promoter: SODIUM L-ASCORBATE, 134-03-2", "result": "15/15 (100%), 5/15 (33%), 67%, p<0.01"},
      {"measurement": "tumour outcome (control, treated, inhibition, significance)", "setting": "Carcinogen: N-BUTYL-N-(4-HYDROXYBUTYL)NITROSAMINE, 53609-64-6, 7.5 MG/KG OF DIET STARTING 1 WK PRIOR TO CARCINOGEN DOSE FROM 49 D OF AGE AND CONTINUING FOR DURATION OF STUDY (STUDY, Species: MOUSE, Strain/Sex: BDF/MALE, Target Tissue: Type of Lesion: BLADDER: CARCINOMA, Dose [Carcinogen]: 7.5 MG IN 0.1 ML OF ETHANOL:WATER (20:80) 1/WK FOR 8 WK, Promoter: NONE USED", "result": "14%, 4%, 71%, p<0.05"},
      {"measurement": "tumour outcome (control, treated, inhibition, significance)", "setting": "Carcinogen: N-BUTYL-N-(4-HYDROXYBUTYL)NITROSAMINE, 53609-64-6, 7.5 MG/KG OF DIET STARTING 1 WK PRIOR TO CARCINOGEN DOSE FROM 49 D OF AGE AND CONTINUING FOR DURATION OF STUDY (STUDY, Species: MOUSE, Strain/Sex: BDF/MALE, Target Tissue: Type of Lesion: BLADDER: PAPILLOMA, Dose [Carcinogen]: 7.5 MG IN 0.1 ML OF ETHANOL:WATER (20:80) 1/WK FOR 8 WK, Promoter: NONE USED", "result": "13%, 1%, 92%, p<0.01"},
      {"measurement": "tumour outcome (control, treated, inhibition, significance)", "setting": "Carcinogen: N-BUTYL-N-(4-HYDROXYBUTYL)NITROSAMINE, 53609-64-6, 15 MG/KG OF DIET STARTING 1 WK PRIOR TO CARCINOGEN DOSE AT 49 D OF AGE AND CONTINUING FOR DURATION OF STUDY (STUDY DU, Species: MOUSE, Strain/Sex: BDF/MALE, Target Tissue: Type of Lesion: BLADDER: CARCINOMA, Dose [Carcinogen]: 7.5 MG IN 0.1 ML OF ETHANOL:WATER (20:80) 1/WK FOR 8 WK, Promoter: NONE USED", "result": "14%, 0%, 100%, p<0.01"},
      {"measurement": "tumour outcome (control, treated, inhibition, significance)", "setting": "Carcinogen: N-BUTYL-N-(4-HYDROXYBUTYL)NITROSAMINE, 53609-64-6, 15 MG/KG OF DIET STARTING 1 WK PRIOR TO CARCINOGEN DOSE AT 49 D OF AGE AND CONTINUING FOR DURATION OF STUDY (STUDY DU, Species: MOUSE, Strain/Sex: BDF/MALE, Target Tissue: Type of Lesion: BLADDER: PAPILLOMA, Dose [Carcinogen]: 7.5 MG IN 0.1 ML OF ETHANOL:WATER (20:80) 1/WK FOR 8 WK, Promoter: NONE USED", "result": "13%, 0%, 100%, p<0.01"},
      {"measurement": "tumour outcome (control, treated, inhibition, significance)", "setting": "Carcinogen: N-ETHYL-N-NITROSOUREA, 759-73-9, 20 MG/L IN DRINKING WATER FOR 12 MO ADMINISTERED TO OFFSPRING OF CARCINOGEN-TREATED MOTHERS (STUDY DURATION: 12 MO), Species: RAT, Strain/Sex: ALBINO/MALE, FEMALE, Target Tissue: Type of Lesion: BRAIN: TUMOR, Dose [Carcinogen]: 75 MG/KG BW ADMINISTERED INTRAPERITONEALLY TO MOTHERS 21 D POST CONCEPTION, Promoter: NONE USED", "result": "36/42 (86%), 14/25 (56%), 35%, p<0.05"},
      {"measurement": "tumour outcome (control, treated, inhibition, significance)", "setting": "Carcinogen: N-ETHYL-N-NITROSOUREA, 759-73-9, 20 MG/L IN DRINKING WATER FOR 12 MO ADMINISTERED TO OFFSPRING OF CARCINOGEN-TREATED MOTHERS (STUDY DURATION: 12 MO), Species: RAT, Strain/Sex: ALBINO/MALE, FEMALE, Target Tissue: Type of Lesion: KIDNEY: TUMOR, Dose [Carcinogen]: 75 MG/KG BW ADMINISTERED INTRAPERITONEALLY TO MOTHERS 21 D POST CONCEPTION, Promoter: NONE USED", "result": "19/42 (45%), 8/25 (32%), 29%, not significant"}
    ]}
  ]
}
